# Measured values reported in patent US20200246365A1, “COMPOUNDS, PHARMACEUTICAL COMPOSITIONS AND USE THEREOF AS INHIBITORS OF RAN GTPASE” (THE ROYAL INSTITUTION FOR THE ADVANCEMENT OF LEARNING / …, priority 2017, published 2020).
# Experiments:
# ARPE-19 cells [1] = assay: Clonogenic survival assay, ARPE-19; format: cell-based, human; details: for effect on normal ARPE-19 cell line in detailed clonogenic assay: different concentrations
# Procedure: (§1) The human EOC cell lines used (TOV81D, TOV112D, OV90, TOV21G, OV866(2), TOV1369(R), OV1369(R2), TOV1946, OV1946, TOV2295(R), OV4485) were derived in our laboratory from patients' tumors (TOV) or ascites (OV). All EOC cell lines were maintained in a low oxygen condition of 7% O2 and 5% CO2 and grown in OSE medium (Wisent, Montreal, QC) supplemented with 10% FBS (Wisent), 0.5 μg/mL amphotericin B (Wisent) and 50 μg/mL gentamicin (Life Technologies Inc., Burlington, ON). The human retinal epithelial cell line ARPE-19 was purchased from American Type Culture Collection (ATCC, Manassas, Va.) and maintained in DMEM-F12 (Wisent) supplemented with 10% FBS (Wisent), 0.5 μg/mL amphotericin B (Wisent) and 50 μg/mL gentamicin (Life Technologies Inc.).
# (§2) Clonogenic assays were performed as previously described. Colonies were counted under a stereo microscope and reported as percent of control. IC50 values were determined using Graph Pad Prism 5 software (GraphPad Software Inc., San Diego, Calif.). Each experiment was performed in duplicate and repeated three times. Sensitivity of the cell lines to small molecules inhibitors of Ran was assessed using a concentration range of 0-50 μM.
# (§3) Small molecules inhibitors of Ran were dissolved in 100% dimethyl sulfoxide (DMSO) and then further diluted in complete culture media for in vitro experiments. Drugs were added 24 hours after seeding.
# Ran-GTP [2] = target: T1, Ran-GTP (Homo sapiens, UniProt P62826); assay: Ran activation (Ran-GTP pull-down) assay in TOV112D cells; format: cell-based; details: 1 hour treatment, vs DMSO
# Procedure: Cells were seeded onto 6-well tissue culture plates in such a way that cell confluence reaches approximately 70% the day of experiment. The day of experiment cells were treated for 1 hour with the indicated compounds prior to protein extraction and quantification. Assays were performed using the Ran activation assay kit (Cell Biolabs). Briefly, 400 μg of lysates were incubated for one hour at 4° C. with agarose beads conjugated to RANBP1, which specifically binds Ran-GTP. Beads were pelleted, washed, and re-suspended in SDS-PAGE buffer, followed by immunoblotting with an anti-Ran antibody.
# [3] = target: T2, recombinant human Ran protein (Homo sapiens, UniProt P62826); assay: Surface Plasmon Resonance (SPR) binding to immobilized Ran
# T2 construct: Recombinant Ran protein was purchased from Sigma-Aldrich Inc. (R3152)
# Procedure: SPR experiments were carried out using the Biacore 3000 system. Recombinant Ran protein was purchased from Sigma-Aldrich Inc. (R3152). The running buffer contained PBS, pH7.4, 1 mM GDP, 2 mM MgCl2 and 0.2% DMSO. The regeneration buffer contained 10 mM glycine (pH 2.5). Ran-GDP protein was immobilized onto a CM5 chip; samples of compounds in running buffer were injected at 30 μL/min for 10 minutes contact time followed by 5 minutes regeneration. Kd was calculated using the GraphPad Prism 5 software.
# TOV112D cells [4] = assay: Clonogenic survival assay, TOV112D; format: cell-based, human; details: for IC50: Homo sapiens, read-out: IC50 value for the TOV112D cell line by clonogenic assay; for IC50 / IC50 value for the TOV112D cell line by clonogenic assay: TOV112D
# Procedure: as §1, §2, §3
# TOV112D cells [5] = assay: IncuCyte cell proliferation assay, TOV112D; format: cell-based, human; details: for cell growth of TOV112D (new M36 analogs screen): 40 μM
# Procedure: as §1
# (§4) Cells (2,000 cells/well) were plated in a 96-well plate. The next day, compounds were added at the indicated concentrations. Following treatment, cell confluence was imaged by phase contrast using the IncuCyte live cell monitoring system (Essen BioScience, Ann Arbor, Mich.). Frames were captured at 2-hour intervals using a 10× objective. For Ran knock down experiments, cells were seeded in a 96-well plate (4,000 cells/well) directly after transfection. Cell confluence monitoring started the next day as described above.
# as §3
# ARPE-19 cells [6] = assay: IncuCyte cell proliferation assay, ARPE-19; format: cell-based, human; details: for cell growth of ARPE-19 (new M36 analogs screen): 40 μM; for effect on normal ARPE-19 cells at low concentrations: 0.5 to 2.5 μM
# Procedure: as §1, §4, §3
# [7] = test system: breast cancer cell lines (MDA231, MDA468, HCC1806, ZR75, T47D, BT474, HCC1954); assay: Cell proliferation, breast cancer cell lines; format: cell-based
# [8] = Pharmacokinetics in CD1 mice; format: in vivo; details: 50 mg/kg
# Procedure: For the pharmacokinetic studies, 6-week-old female CD1 mice (Charles River laboratories, Senneville, QC, Canada) received a single intravenous or intraperitoneal injection of M36 or QR20 (50 mg/kg), dissolved in DMSO 10%, Kolliphor® EL 10%, PEG-400 20% and PBS 60% (QR20 was also dissolved in DMSO 10%, PBS 90%). For each time point (15 minutes, 30 minutes, […], 1 hour, 2 hours and 6 hours), 3 mice were sacrificed and blood was collected by cardiac puncture. Thereafter, the plasma level of each compound was measured by mass spectrometry.
# [9] = Tolerance test in NRG mice; format: in vivo; details: daily i.p. 75 mg/kg for 15 days
# Procedure: For the tolerance test, M36 and QR20 compounds were dissolved in DMSO 10%, Kolliphor® EL 10%, PEG-400 20% and PBS 60% and injected intraperitoneally into 6-week-old female Nod Rag Gamma (NRG) mice (The Jackson laboratory, Bar Harbor, Me.) daily at 75 mg/kg. During this study, mice (n=3) were monitored for survival and weight loss/gain.
# [10] = test system: other aneuploid EOC cells; assay: IncuCyte cell proliferation assay, other aneuploid EOC cell lines; format: cell-based, human; details: 80 μM
# Procedure: as §1, §4, §3
# Ran-GTP [11] = target: T1, Ran-GTP; assay: Ran-GTP immunofluorescence in TOV112D cells; format: cell-based; details: TOV112D cells vs DMSO-treated
# Procedure: M36 and R28-treated and control TOV112D cells grown on coverslips were washed with 1×PBS, fixed in 4% paraformaldehyde and permeabilized with 0.25% Triton X-100 (Sigma-Aldrich Inc.). After blocking (4% BSA and 4% FBS in PBS), coverslips were incubated with the monoclonal anti-RanGTP antibody (26915, NewEastBioscences) diluted 1:100 in blocking buffer for 2 hours at room temperature. Subsequently, samples were incubated with Cy-5 secondary antibody (1:500, Life Technologies Inc.) for 1 hour and coverslips were mounted onto slides using Prolong® Gold anti-fade reagent with DAPI (Life Technologies Inc.). Samples were visualized under a Zeiss microscope (Zeiss observer Z1) with a 20× objective.
# [12] = test system: prostate cancer cell lines (LNCaP, 22RV1, PC3, DU145); assay: Cell proliferation, prostate cancer cell lines; format: cell-based
# cleaved PARP = assay: Apoptosis by PARP cleavage (Western blot); format: cell-based, human; details: 96 hours after treatment
# Procedure: Cells were lysed with RIPA buffer containing protease inhibitors. Whole cell lysates were run through a Bradford assay (Thermo Fisher Scientific) for protein quantification. Around 25-50 μg of proteins were separated onto 12.5% SDS-PAGE and transferred onto nitrocellulose membranes. The resultant blots were probed with Ran (1:10000, sc-271376 Santa Cruz Biotechnology, Dallas, Tex.), cleaved PARP (1:1000, #9541, Cell Signaling Technology Inc., Danvers, Mass.), GAPDH (1:2500, #2118, Cell Signaling Technology Inc.) or beta-actin (1:50000, ab6276, Abcam Inc., Toronto, ON, Canada) primary antibodies overnight at 4° C. then with peroxidase-conjugated secondary antibodies for 2 hours at room temperature. Proteins were detected using enhanced chemiluminescence (Thermo Fisher Scientific).
compound,measurement,setting,value
NC(=S)[C@@H]1C[C@H](COC(=O)c2ccccc2)[C@@H](OC(=O)c2ccccc2)[C@H]1OC(=O)c1ccccc1 [M26],colony formation of ARPE-19 cells,ARPE-19 cells [1]; single dose 10 μM,not normal cells
same,active Ran-GTP levels (pull-down),Ran-GTP [2],marked decrease in Ran-GTP levels
same,binding to the immobilized Ran protein,"[3]; different compound concentrations, reached saturation",concentration-dependent binding
same,colony formation of TOV112D cells,TOV112D cells [4]; single dose 10 μM,specifically inhibited colony formation of EOC
NC(=S)[C@H]1O[C@H](COCc2ccccc2F)[C@@H](OCc2ccccc2F)[C@H]1OCc1ccccc1F [M46],active Ran-GTP levels (pull-down),Ran-GTP [2],weaker than that of M36
same,IC50,TOV112D cells [4],12.5 ± 0.36 µM
Fc1ccc(CNCc2cc(CNCc3ccc(F)cc3)cc(CNCc3ccc(F)cc3)c2)cc1 [M48],cell growth of TOV112D (new M36 analogs screen),TOV112D cells [5]; day 4,completely inhibited cell growth
same,cell growth of ARPE-19 (new M36 analogs screen),ARPE-19 cells [6]; day 4,completely inhibited cell growth
same,effect on normal ARPE-19 cells at low concentrations,ARPE-19 cells [6],also affected normal ARPE-19 cells
same,IC50 value for the TOV112D cell line by clonogenic assay,TOV112D cells [4],low IC50 values
c1ccc(CNCc2cc(CNCc3ccccc3)cc(CNCc3ccccc3)c2)cc1 [M51],cell growth of TOV112D (new M36 analogs screen),TOV112D cells [5]; day 4,completely inhibited cell growth
same,TOV112D cell growth at low concentrations,"TOV112D cells [5]; 0.5, 1, 2.5 μM",inhibited TOV112D cell growth
same,effect on breast cancer cell lines,[7],effective in one triple negative breast cancer cell line
same,cell growth of ARPE-19 (new M36 analogs screen),ARPE-19 cells [6]; day 4,completely inhibited cell growth
same,effect on normal ARPE-19 cells at low concentrations,ARPE-19 cells [6],did not affect normal cells
same,IC50,TOV112D cells [4],~0.66 µM
COc1ccc(CNCc2cc(CNCc3ccc(OC)cc3)cc(CNCc3ccc(OC)cc3)c2)cc1 [M52],cell growth of TOV112D (new M36 analogs screen),TOV112D cells [5]; day 4,completely inhibited cell growth
same,cell growth of ARPE-19 (new M36 analogs screen),ARPE-19 cells [6]; day 4,completely inhibited cell growth
same,effect on normal ARPE-19 cells at low concentrations,ARPE-19 cells [6],also affected normal ARPE-19 cells
same,IC50 value for the TOV112D cell line by clonogenic assay,TOV112D cells [4],low IC50 values
COc1ccc(CN(C)Cc2cc(CN(C)Cc3ccc(OC)cc3)cc(CN(C)Cc3ccc(OC)cc3)c2)cc1 [M55],cell growth of TOV112D (new M36 analogs screen),TOV112D cells [5]; day 4,discriminative effect between normal ARPE-19 and aneuploid TOV112D cells
same,"cell growth of TOV112D, detailed proliferation assay","TOV112D cells [5]; 5, 10, 20 μM",specifically inhibit cell growth of the TOV112D cells even at a low concentration of 5 μM
same,IC50,TOV112D cells [4],4.16 µM
c1ccc(CN2CCN(C(c3ccccc3)C3CCCCC3)CC2)cc1 (stereo not shown) [QR20],pharmacokinetics profile based on AUC values,[8],good pharmacokinetics profiles
same,"TOV112D cell proliferation, R20 salts","TOV112D cells [5]; 20, 40, 80 μM",exactly the same activity to inhibit TOV112D cell proliferation
same,"ARPE-19 cell proliferation, R20 salts","ARPE-19 cells [6]; 20, 40, 80 μM",without affecting the normal ARPE-19 cells
same,tolerance,[9],well tolerated
same,weight loss,[9],no weight loss
c1ccc(CN2CCN(C(c3ccccc3)C3CCCCC3)CC2)cc1 (stereo not shown) [R20],effect on normal ARPE-19 cell line in detailed clonogenic assay,ARPE-19 cells [1],no effect
same,cell proliferation of other aneuploid EOC cells,[10],inhibited cell proliferation
same,cell proliferation of TOV112D (1292 analogs screen),"TOV112D cells [5]; 80 μM, vs normal ARPE-19",greater efficacy in inhibiting cell proliferation
same,active Ran-GTP levels (pull-down),Ran-GTP [2],concentration-dependent decrease in Ran-GTP levels
same,IC50,TOV112D cells [4],9.91 ± 0.36 µM
COc1ccc(CN2CCN(Cc3ccc(OC)c(N(C(=O)Nc4cccc(F)c4)C(=O)Nc4cccc(F)c4)c3)CC2)cc1 [R28],Ran-GTP levels by immunofluorescence,Ran-GTP [11],very low levels of active Ran-GTP
same,proliferation of TOV112D cells (R20 analogs screen),"TOV112D cells [5]; 20, 40 and 80 μM, day 4",more efficient than compound R20 to inhibit proliferation of TOV112D cells
same,effect on breast cancer cell lines,[7],effective in both cancer types
same,proliferation of ARPE-19 cells (R20 analogs screen),"ARPE-19 cells [6]; 20, 40 and 80 μM, day 4",without affecting normal ARPE-19 cells
same,effect on prostate cancer cell lines,[12],effective in both cancer types
same,IC50,TOV112D cells [4],2.99 ± 0.19 µM
Oc1ccc(CCCCCCc2ccc(O)cc2)cc1 [V188],Kd,[3]; Ran-GDP immobilized on CM5 chip,0.38 µM
same,IC50,TOV112D cells [4],7.6 ± 0.32 µM
COc1ccc(CN2CCN(Cc3ccc(OC)cc3)CC2)cc1 [compound 1292],effect on normal ARPE-19 cell line in detailed clonogenic assay,ARPE-19 cells [1],did not have any effect
same,cell proliferation of other aneuploid EOC cells,[10],inhibited cell proliferation
same,active Ran-GTP levels (pull-down),Ran-GTP [2],concentration-dependent decrease in Ran-GTP levels
same,apoptosis (cleaved PARP on Western blot),cleaved PARP,induction of apoptosis
same,IC50,TOV112D cells [4],15 ± 0.37 µM
